Measured values from ChEMBL document CHEMBL1201862, “PubChem BioAssay data set” (2004).
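Results reflect a 48-hour exposure of cells in 96-well plates to compound at five concentrations. Here, GI50 denotes the concentration required for 50% inhibition of growth.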 Calls of active or inactive are those of the source. Rule as the data show it: active = GI50 up to about 1.1 µM and inactive = higher.

How the values were obtained:
Assay in all cases: NCI-60 cell line screen, 48 h
KM-20L2 = system: KM-20L2
HOP-62 = system: HOP-62
SF-268 = system: SF-268
SNB-78 = system: SNB-78
NCI-H522 = system: NCI-H522
HCC 2998 = system: HCC 2998
UACC-62 = system: UACC-62
SNB-75 = system: SNB-75
SK-MEL-5 = system: SK-MEL-5
DLD-1 = system: DLD-1
LOX IMVI = system: LOX IMVI
SW-620 = system: SW-620
OVCAR-3 = system: OVCAR-3
OVCAR-8 = system: OVCAR-8
U-251 = system: U-251
DMS-273 = system: DMS-273
HCT-116 = system: HCT-116
HL-60 = system: HL-60
HOP-92 = system: HOP-92
SK-MEL-28 = system: SK-MEL-28
NCI-H226 = system: NCI-H226
NCI-H460 = system: NCI-H460
SR = system: SR
SNB-19 = system: SNB-19
OVCAR-5 = system: OVCAR-5
MOLT-4 = system: MOLT-4
M19-MEL = system: M19-MEL
NCI-H23 = system: NCI-H23
SN12C = system: SN12C
RPMI-8226 = system: RPMI-8226
786-0 = system: 786-0
SF-295 = system: SF-295
SK-OV-3 = system: SK-OV-3
SF-539 = system: SF-539
CAKI-1 = system: CAKI-1
K562 = system: K562
ACHN = system: ACHN
DMS-114 = system: DMS-114
UO-31 = system: UO-31
TK-10 = system: TK-10
A549 = system: A549
CCRF-CEM = system: CCRF-CEM
M14 = system: M14
IGROV-1 = system: IGROV-1
COLO 205 = system: COLO 205
RXF 393 = system: RXF 393
XF498 = system: XF498
Malme-3M = system: Malme-3M
HT-29 = system: HT-29
OVCAR-4 = system: OVCAR-4
KM12 = system: KM12
LXFL 529 = system: LXFL 529
RXF 631 = system: RXF 631
UACC-257 = system: UACC-257
A498 = system: A498
HCT-15 = system: HCT-15
SK-MEL-2 = system: SK-MEL-2
HOP-18 = system: HOP-18
EKVX = system: EKVX

CC(=O)N(C)OC(=O)CC(=O)c1ccccc1
GI50 (KM-20L2): > 100 µM (inactive) | GI50 (HOP-62): > 100 µM (inactive) | GI50 (SF-268): > 100 µM (inactive) | GI50 (SNB-78): > 100 µM (inactive) | GI50 (NCI-H522): > 100 µM (inactive) | GI50 (HCC 2998): > 100 µM (inactive) | GI50 (UACC-62): > 100 µM (inactive) | GI50 (SNB-75): 76.9 µM (inactive) | GI50 (SK-MEL-5): > 100 µM (inactive) | GI50 (DLD-1): > 100 µM (inactive) | GI50 (LOX IMVI): > 100 µM (inactive) | GI50 (SW-620): > 100 µM (inactive) | GI50 (OVCAR-3): > 100 µM (inactive) | GI50 (OVCAR-8): > 100 µM (inactive) | GI50 (U-251): > 100 µM (inactive) | GI50 (DMS-273): > 100 µM (inactive) | GI50 (HCT-116): > 100 µM (inactive) | GI50 (HL-60): > 100 µM (inactive) | GI50 (HOP-92): > 100 µM (inactive) | GI50 (SK-MEL-28): > 100 µM (inactive) | GI50 (NCI-H226): > 100 µM (inactive) | GI50 (NCI-H460): > 100 µM (inactive) | GI50 (SR): > 100 µM (inactive) | GI50 (SNB-19): > 100 µM (inactive) | GI50 (OVCAR-5): > 100 µM (inactive) | GI50 (MOLT-4): > 100 µM (inactive) | GI50 (M19-MEL): > 100 µM (inactive) | GI50 (NCI-H23): > 100 µM (inactive) | GI50 (SN12C): > 100 µM (inactive) | GI50 (RPMI-8226): > 100 µM (inactive) | GI50 (786-0): > 100 µM (inactive) | GI50 (SF-295): > 100 µM (inactive) | GI50 (SK-OV-3): > 100 µM (inactive) | GI50 (SF-539): > 100 µM (inactive) | GI50 (CAKI-1): > 100 µM (inactive) | GI50 (K562): > 100 µM (inactive) | GI50 (ACHN): > 100 µM (inactive) | GI50 (DMS-114): > 100 µM (inactive) | GI50 (UO-31): > 100 µM (inactive) | GI50 (TK-10): > 100 µM (inactive) | GI50 (A549): > 100 µM (inactive) | GI50 (CCRF-CEM): > 100 µM (inactive) | GI50 (M14): > 100 µM (inactive) | GI50 (IGROV-1): > 100 µM (inactive) | GI50 (COLO 205): > 100 µM (inactive) | GI50 (RXF 393): > 100 µM (inactive) | GI50 (XF498): > 100 µM (inactive) | GI50 (Malme-3M): > 100 µM (inactive) | GI50 (HT-29): > 100 µM (inactive) | GI50 (OVCAR-4): > 100 µM (inactive) | GI50 (KM12): > 100 µM (inactive) | GI50 (LXFL 529): > 100 µM (inactive) | GI50 (RXF 631): > 100 µM (inactive) | GI50 (UACC-257): > 100 µM (inactive)

Cc1ccc(S(=O)(=O)n2cc(/C=C/C#N)c(/C=C/C#N)c2)cc1
GI50 (KM-20L2): 93.3 µM (inactive) | GI50 (HOP-62): > 100 µM (inactive) | GI50 (SF-268): 54 µM (inactive) | GI50 (NCI-H522): > 10 µM (inactive) | GI50 (UACC-62): 48.9 µM (inactive) | GI50 (SNB-75): 29.8 µM (inactive) | GI50 (SK-MEL-5): 39.2 µM (inactive) | GI50 (LOX IMVI): 56.6 µM (inactive) | GI50 (SW-620): 40 µM (inactive) | GI50 (OVCAR-3): 37.1 µM (inactive) | GI50 (OVCAR-8): > 100 µM (inactive) | GI50 (U-251): 94.8 µM (inactive) | GI50 (DMS-273): 49.5 µM (inactive) | GI50 (A498): 50.5 µM (inactive) | GI50 (HL-60): 25.5 µM (inactive) | GI50 (HOP-92): 24.8 µM (inactive) | GI50 (SK-MEL-28): > 100 µM (inactive) | GI50 (NCI-H460): > 100 µM (inactive) | GI50 (SNB-19): 57.9 µM (inactive) | GI50 (OVCAR-5): > 100 µM (inactive) | GI50 (MOLT-4): 29.3 µM (inactive) | GI50 (HCT-15): 88.9 µM | GI50 (M19-MEL): > 100 µM (inactive) | GI50 (NCI-H23): 96.6 µM (inactive) | GI50 (SN12C): > 100 µM (inactive) | GI50 (RPMI-8226): > 100 µM (inactive) | GI50 (786-0): > 100 µM (inactive) | GI50 (SF-295): 55.5 µM (inactive) | GI50 (SK-OV-3): > 100 µM (inactive) | GI50 (SK-MEL-2): 74.3 µM (inactive) | GI50 (HOP-18): 20.8 µM (inactive) | GI50 (SF-539): > 100 µM (inactive) | GI50 (K562): 34 µM (inactive) | GI50 (ACHN): 72.8 µM (inactive) | GI50 (DMS-114): 22.6 µM (inactive) | GI50 (UO-31): 23.4 µM (inactive) | GI50 (TK-10): > 100 µM (inactive) | GI50 (A549): 63.8 µM (inactive) | GI50 (CCRF-CEM): 43.8 µM (inactive) | GI50 (M14): 89.7 µM (inactive) | GI50 (IGROV-1): > 100 µM (inactive) | GI50 (COLO 205): > 100 µM (inactive) | GI50 (RXF 393): 33.7 µM (inactive) | GI50 (XF498): > 100 µM (inactive) | GI50 (Malme-3M): > 100 µM (inactive) | GI50 (EKVX): 85.1 µM (inactive) | GI50 (HT-29): > 100 µM (inactive) | GI50 (OVCAR-4): 59.4 µM (inactive) | GI50 (KM12): 48.4 µM (inactive) | GI50 (LXFL 529): > 100 µM (inactive) | GI50 (RXF 631): > 100 µM (inactive) | GI50 (UACC-257): 82 µM (inactive)
